Reference: US20090298797A1, “COMBINATION THERAPY FOR THE TREATMENT OF INFLUENZA” (priority 2008, published 2009)
“And” between values parts separate entries of the source, which are not always exact repeats. Equal entries are not always repeated.

Columns and labels:
[1] = test system: influenza A virus strain A/Vietnam/1194/04 (H5N1); set-up: species or system BALB/c mice; conditions: mouse, in vivo
[2] = test system: IL-1, IL-6, IFN-γ, TNF-α, MIP-1, PGE2, leukotriene; assay: ELISA of pro-inflammatory cytokines, chemokines, PGE2 and leukotriene in tracheal-pulmonary lavage; format: in vivo, BALB/c mice
[3] = test system: influenza A virus strain A/Vietnam/1194/04 (H5N1); set-up: species or system BALB/c mice; conditions: mouse, in vivo; remark: listed apart in the source
influenza A/H2N2 virus = conditions: mouse, in vivo; cited from earlier work

Structure (SMILES)	mean survival time [1]	survival [1]	survival rate [1]	levels of inflammatory markers IL-6, IFN-γ, TNF-α, MIP-1 and leukotriene in tracheal-pulmonary lavage ([2]; compared with triple therapy (P<0.01 or 0.05) or uninfected normal mice)	IL-1 levels in tracheal-pulmonary lavage ([2]; zanamivir alone and controls vs triple therapy, P>0.05)	TCID50 titer in the tracheal-pulmonary lavage [3]	survival of mice infected by influenza A/H2N2 virus (influenza A/H2N2 virus)
CC(=O)N[C@H]1[C@H]([C@H](O)[C@H](O)CO)OC(C(=O)O)=C[C@@H]1N=C(N)N [zanamivir]	10.7 ± 1.6 days and 8.4 days	All mice survived	13.3%	significantly higher	only slightly lower	below our detectable limit	–
Cc1ccc(C)c(OCCCC(C)(C)C(=O)O)c1 [gemfibrozil]	about 7.5 days	no significant improvement	–	–	–	–	52%
Nc1ccc(O)c(C(=O)O)c1 [mesalazine, 5-aminosalicylic acid]	about 8.5 days	–	–	–	–	–	–
Cc1ccc(-c2cc(C(F)(F)F)nn2-c2ccc(S(N)(=O)=O)cc2)cc1 [celecoxib]	about 8.5 days	–	–	–	–	–	–
